Reference: patent US12521393B2, “Cytotoxicity targeting chimeras for CCR2-expressing cells” (GLAXOSMITHKLINE INTELLECTUAL PROPERTY DEVELOPMENT LIMITED, priority 2021, dated 2026)

Key:
[1] = biological target: human alpha1 nicotinic acetylcholine (nACh) receptor (Homo sapiens, UniProt P02708); assay: Nicotinic acetylcholine receptor antagonism assay, IONFlux automated patch clamp (Example 203); assay type: cell-based; conditions: for IC50: antagonism of ACh-stimulated human alpha1 nAChR current, patch clamp; for Emax at 100 µM: maximum percentage antagonism at maximum concentration tested 100 μM
Chain of human alpha1 nicotinic acetylcholine (nACh) receptor (P02708 21-457): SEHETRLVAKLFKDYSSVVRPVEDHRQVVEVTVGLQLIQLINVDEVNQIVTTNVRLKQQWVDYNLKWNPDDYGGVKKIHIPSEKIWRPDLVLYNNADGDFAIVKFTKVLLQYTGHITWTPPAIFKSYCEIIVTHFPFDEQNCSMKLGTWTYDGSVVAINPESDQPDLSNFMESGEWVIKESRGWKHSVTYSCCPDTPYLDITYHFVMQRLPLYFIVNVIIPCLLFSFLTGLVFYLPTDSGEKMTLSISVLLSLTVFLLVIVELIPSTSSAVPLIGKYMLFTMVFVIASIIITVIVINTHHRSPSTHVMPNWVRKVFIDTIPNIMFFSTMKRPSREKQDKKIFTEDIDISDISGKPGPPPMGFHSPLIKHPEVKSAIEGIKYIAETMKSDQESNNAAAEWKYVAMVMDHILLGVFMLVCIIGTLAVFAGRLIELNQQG
Chain of human alpha1 nicotinic acetylcholine (nACh) receptor (P11230 24-501 partner): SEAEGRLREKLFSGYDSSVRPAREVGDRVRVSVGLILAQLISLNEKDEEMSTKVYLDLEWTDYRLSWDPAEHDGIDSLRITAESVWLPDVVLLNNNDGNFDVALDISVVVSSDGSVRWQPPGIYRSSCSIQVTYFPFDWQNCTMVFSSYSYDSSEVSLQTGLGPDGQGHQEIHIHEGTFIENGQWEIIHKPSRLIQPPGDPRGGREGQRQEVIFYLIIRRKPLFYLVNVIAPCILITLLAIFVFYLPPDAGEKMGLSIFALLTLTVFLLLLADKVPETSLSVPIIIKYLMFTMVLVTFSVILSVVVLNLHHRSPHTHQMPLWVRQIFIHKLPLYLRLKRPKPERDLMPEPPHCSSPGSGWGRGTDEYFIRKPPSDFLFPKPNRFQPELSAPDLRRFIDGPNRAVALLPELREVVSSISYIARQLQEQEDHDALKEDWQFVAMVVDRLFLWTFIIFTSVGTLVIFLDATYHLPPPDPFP
Chain of human alpha1 nicotinic acetylcholine (nACh) receptor (Q07001 22-517 partner): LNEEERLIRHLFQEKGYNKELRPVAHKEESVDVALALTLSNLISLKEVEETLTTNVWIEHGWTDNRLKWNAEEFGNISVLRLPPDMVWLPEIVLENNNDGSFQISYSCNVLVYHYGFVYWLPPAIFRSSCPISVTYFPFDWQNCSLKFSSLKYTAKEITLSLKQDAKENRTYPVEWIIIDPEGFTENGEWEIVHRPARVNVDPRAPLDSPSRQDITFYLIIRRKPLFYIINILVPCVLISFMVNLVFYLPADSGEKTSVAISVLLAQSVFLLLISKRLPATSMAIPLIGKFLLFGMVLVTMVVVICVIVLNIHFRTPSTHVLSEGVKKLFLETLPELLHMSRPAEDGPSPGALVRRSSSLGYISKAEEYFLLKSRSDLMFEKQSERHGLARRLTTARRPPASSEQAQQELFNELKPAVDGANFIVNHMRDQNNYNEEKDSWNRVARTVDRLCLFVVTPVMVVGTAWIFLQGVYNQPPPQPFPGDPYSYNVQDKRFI
How it was run: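 Cells expressing human α1 nAChR were incubated with a compound dose response (top 10 μM or 100 μM), then stimulated with ACh (10 mM), and peak current was read by automated patch clamp. % inhibition was taken against ACh-alone control, corrected for vehicle and run-down, and fit non-linearly for IC50; runs were averaged.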

[2] = system: endogenous target monocytes in human PBMC; assay: PBMC ex vivo monocyte depletion flow cytometry assay (Example 200); assay type: cell-based; conditions: with anti-cotinine antibody (SEQ ID NO: 11/12), 18-24 hours, EC50 in molar, read-out: Ex Vivo Depletion Assay pEC50 (converted)
How it was run: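 Monocyte depletion is reported as pEC50, averaged or given individually across runs, and read by flow cytometry staining CD45, CD14 and CD4 with a viability dye. Compounds, diluted four-fold over 11 points from 1 mM DMSO stocks, were combined with 30 μg/mL Fc-enhanced anti-cotinine antibody and human PBMC, then incubated 18-24 h at 37° C.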

| SMILES | IC50 [1] [nM] | Emax at 100 µM ([1]; read-out: Maximum Response) [%] | EC50 [2] [nM] | Emax at 10 µM ([1]; maximum percentage antagonism at maximum concentration tested 10 μM, read-out: Maximum Response) [%] |
| --- | --- | --- | --- | --- |
| CN1C(=O)C[C@H](C(=O)NCCOCCNC(=O)[C@H]2C[C@H](NC(=O)CCOCCC(=O)N[C@@H]3C[C@H](NC(C)(C)C)CC[C@@H]3N3CC[C@H](Nc4ncnc5ccc(C(F)(F)F)cc45)C3=O)C2)[C@H]1c1cccnc1 [Example 188, (2S,3S)-N-(2-(2-((1R,3S)-3-(3-(3-(((1R,2S,5R)-5-(tert-butylamino)-2-((S)-2-oxo-3-((6-(trifluoromethyl)quinazolin-4-yl)amino)pyrrolidin-1-yl)cyclohexyl)amino)-3-oxopropoxy)propanamido)cyclobutane-1-carboxamido)ethoxy)ethyl)-1-methyl-5-oxo-2-(pyridin-3-yl)pyrrolidine-3-carboxamide] | 85900 | 53.5 | 0.316 |  |
| CC(C)N(C)[C@@H]1CC[C@H](N2CC[C@H](Nc3ncnc4ccc(C(F)(F)F)cc34)C2=O)[C@H](NC(=O)CCCN2CCC3(CCN(CCCNC(=O)[C@H]4CC(=O)N(C)[C@@H]4c4cccnc4)CC3)CC2)C1 [Example 191, (2S,3S)-N-(3-(9-(4-(((1R,2S,5R)-5-(Isopropyl(methyl)amino)-2-((S)-2-oxo-3-((6-(trifluoromethyl)quinazolin-4-yl)amino)pyrrolidin-1-yl)cyclohexyl)amino)-4-oxobutyl)-3,9-diazaspiro[5.5]undecan-3-yl)propyl)-1-methyl-5-oxo-2-(pyridin-3-yl)pyrrolidine-3-carboxamide] | 2950 |  | 0.501 | 74 |
| CC(C)N(C)[C@@H]1CC[C@H](N2CC[C@H](Nc3ncnc4ccc(C(F)(F)F)cc34)C2=O)[C@H](NC(=O)[C@H]2CC[C@H](C(=O)NCCCOCCCCOCCCNC(=O)[C@H]3CC(=O)N(C)[C@@H]3c3cccnc3)CC2)C1 [Example 194, (1r,4R)-N^1-((1R,2S,5R)-5-(Isopropyl(methyl)amino)-2-((S)-2-oxo-3-((6-(trifluoromethyl)quinazolin-4-yl)amino)pyrrolidin-1-yl)cyclohexyl)-N^4-(3-(4-(3-((2S,3S)-1-methyl-5-oxo-2-(pyridin-3-yl)pyrrolidine-3-carboxamido)propoxy)butoxy)propyl)cyclohexane-1,4-dicarboxamide] | ≥ 100000 | 44.9 | 0.631 |  |
